Assay results from PubChem BioAssay (NCI).
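Cells were grown in 96-well plates and exposed to each compound for 48 hours at five concentrations; endpoints were interpolated linearly between bracketing concentrations, or set to the highest concentration if not reached. GI50: concentration for 50% inhibition of growth. TGI: concentration producing complete growth inhibition.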

How the values were obtained:
Assay in all cases: growth of human tumour cells (NCI), 48 h
BT-549 breast = test system: BT-549 breast
M14 melanoma = test system: M14 melanoma
SF-539 CNS = test system: SF-539 CNS
HOP-62 NSCLC = test system: HOP-62 NSCLC
HCT-15 colon = test system: HCT-15 colon
HL-60(TB) leukemia = test system: HL-60(TB) leukemia
OVCAR-4 ovarian = test system: OVCAR-4 ovarian
SF-268 CNS = test system: SF-268 CNS
LOX IMVI melanoma = test system: LOX IMVI melanoma
TK-10 renal = test system: TK-10 renal
RXF 393 renal = test system: RXF 393 renal
SK-MEL-5 melanoma = test system: SK-MEL-5 melanoma
OVCAR-3 ovarian = test system: OVCAR-3 ovarian
RPMI-8226 leukemia = test system: RPMI-8226 leukemia
HCC-2998 colon = test system: HCC-2998 colon
CAKI-1 renal = test system: CAKI-1 renal
SF-295 CNS = test system: SF-295 CNS
HT29 colon = test system: HT29 colon
COLO 205 colon = test system: COLO 205 colon
OVCAR-5 ovarian = test system: OVCAR-5 ovarian
DU-145 prostate = test system: DU-145 prostate
SK-OV-3 ovarian = test system: SK-OV-3 ovarian
MALME-3M melanoma = test system: MALME-3M melanoma
SNB-75 CNS = test system: SNB-75 CNS
786-0 renal = test system: 786-0 renal
SNB-19 CNS = test system: SNB-19 CNS
MDA-MB-435 = test system: MDA-MB-435
HS 578T breast = test system: HS 578T breast
SN12C renal = test system: SN12C renal
OVCAR-8 ovarian = test system: OVCAR-8 ovarian
UACC-62 melanoma = test system: UACC-62 melanoma
EKVX NSCLC = test system: EKVX NSCLC
T-47D breast = test system: T-47D breast
MOLT-4 leukemia = test system: MOLT-4 leukemia
MCF7 breast = test system: MCF7 breast
UO-31 renal = test system: UO-31 renal
PC-3 prostate = test system: PC-3 prostate
U251 CNS = test system: U251 CNS
NCI/ADR-RES ovarian = test system: NCI/ADR-RES ovarian
MDA-MB-231 breast = test system: MDA-MB-231 breast
A498 renal = test system: A498 renal
SW-620 colon = test system: SW-620 colon
A549 NSCLC = test system: A549 NSCLC
HOP-92 NSCLC = test system: HOP-92 NSCLC
KM12 colon = test system: KM12 colon
ACHN renal = test system: ACHN renal
SR leukemia = test system: SR leukemia
NCI-H460 lung = test system: NCI-H460 lung
SK-MEL-28 melanoma = test system: SK-MEL-28 melanoma
IGROV1 ovarian = test system: IGROV1 ovarian
NCI-H522 lung = test system: NCI-H522 lung
SK-MEL-2 melanoma = test system: SK-MEL-2 melanoma
HCT-116 colon = test system: HCT-116 colon
NCI-H226 lung = test system: NCI-H226 lung
UACC-257 melanoma = test system: UACC-257 melanoma
K-562 leukemia = test system: K-562 leukemia

N#Cc1nc(-c2ccccc2)oc1S(=O)(=O)N1CCN(CCc2ccccn2)CC1
GI50 (BT-549 breast): 3.36 µM
TGI (BT-549 breast): 12.7 µM
GI50 (M14 melanoma): 2.29 µM
TGI (M14 melanoma): 9.51 µM
GI50 (SF-539 CNS): 3.99 µM
TGI (SF-539 CNS): 13.7 µM
GI50 (HOP-62 NSCLC): 20.8 µM
TGI (HOP-62 NSCLC): 58.9 µM
GI50 (HCT-15 colon): 1.86 µM
TGI (HCT-15 colon): 5.87 µM
GI50 (HL-60(TB) leukemia): 1.55 µM
TGI (HL-60(TB) leukemia): 4.85 µM
GI50 (OVCAR-4 ovarian): 2.91 µM
TGI (OVCAR-4 ovarian): 9.94 µM
GI50 (SF-268 CNS): 10.5 µM
TGI (SF-268 CNS): 35.9 µM
GI50 (LOX IMVI melanoma): 1.22 µM
TGI (LOX IMVI melanoma): 2.69 µM
GI50 (TK-10 renal): 7.32 µM
TGI (TK-10 renal): 19.7 µM
GI50 (RXF 393 renal): 1.89 µM
TGI (RXF 393 renal): 3.74 µM
GI50 (SK-MEL-5 melanoma): 16.7 µM
TGI (SK-MEL-5 melanoma): 32.4 µM
GI50 (OVCAR-3 ovarian): 1.67 µM
TGI (OVCAR-3 ovarian): 3.22 µM
GI50 (RPMI-8226 leukemia): 2.75 µM
GI50 (HCC-2998 colon): 14.2 µM
TGI (HCC-2998 colon): 28.9 µM
GI50 (CAKI-1 renal): 1.18 µM
TGI (CAKI-1 renal): 2.41 µM
GI50 (SF-295 CNS): 29.2 µM
TGI (SF-295 CNS): 87.2 µM
GI50 (HT29 colon): 1.72 µM
TGI (HT29 colon): 3.44 µM
GI50 (COLO 205 colon): 1.54 µM
TGI (COLO 205 colon): 3.02 µM
GI50 (OVCAR-5 ovarian): 12.5 µM
TGI (OVCAR-5 ovarian): 26 µM
GI50 (DU-145 prostate): 4.56 µM
TGI (DU-145 prostate): 22.3 µM
GI50 (SK-OV-3 ovarian): 30.4 µM
TGI (SK-OV-3 ovarian): > 100 µM
GI50 (MALME-3M melanoma): 1.87 µM
TGI (MALME-3M melanoma): 3.69 µM
GI50 (SNB-75 CNS): 12.3 µM
TGI (SNB-75 CNS): 24.8 µM
GI50 (786-0 renal): 2.21 µM
TGI (786-0 renal): 6.09 µM
GI50 (SNB-19 CNS): 20.5 µM
TGI (SNB-19 CNS): 57.9 µM
GI50 (MDA-MB-435): 4.08 µM
TGI (MDA-MB-435): 16.7 µM
GI50 (HS 578T breast): 17.3 µM
TGI (HS 578T breast): 61.9 µM
GI50 (SN12C renal): 10.4 µM
TGI (SN12C renal): 24.2 µM
GI50 (OVCAR-8 ovarian): 14 µM
TGI (OVCAR-8 ovarian): 49.9 µM
GI50 (UACC-62 melanoma): 9.85 µM
TGI (UACC-62 melanoma): 23.2 µM
GI50 (EKVX NSCLC): 23.3 µM
TGI (EKVX NSCLC): 68.2 µM
GI50 (T-47D breast): 1.87 µM
TGI (T-47D breast): 4.41 µM
GI50 (MOLT-4 leukemia): 2.16 µM
TGI (MOLT-4 leukemia): 8.35 µM
GI50 (MCF7 breast): 1.83 µM
TGI (MCF7 breast): 10.2 µM
GI50 (UO-31 renal): 2.64 µM
TGI (UO-31 renal): 9.81 µM
GI50 (PC-3 prostate): 12.3 µM
TGI (PC-3 prostate): 26.7 µM
GI50 (U251 CNS): 13.5 µM
TGI (U251 CNS): 27 µM
GI50 (NCI/ADR-RES ovarian): 19.3 µM
TGI (NCI/ADR-RES ovarian): 94.5 µM
GI50 (MDA-MB-231 breast): 15.5 µM
TGI (MDA-MB-231 breast): 34.4 µM
GI50 (A498 renal): > 100 µM
TGI (A498 renal): > 100 µM
GI50 (SW-620 colon): 0.985 µM
TGI (SW-620 colon): 2.7 µM
GI50 (A549 NSCLC): 24.6 µM
TGI (A549 NSCLC): > 100 µM
GI50 (HOP-92 NSCLC): 2.23 µM
TGI (HOP-92 NSCLC): 6.92 µM
GI50 (KM12 colon): 13.5 µM
TGI (KM12 colon): 36.4 µM
GI50 (ACHN renal): 1.67 µM
TGI (ACHN renal): 3.09 µM
GI50 (SR leukemia): 1.41 µM
TGI (SR leukemia): 5.19 µM
GI50 (NCI-H460 lung): 12.3 µM
TGI (NCI-H460 lung): 32.7 µM
GI50 (SK-MEL-28 melanoma): 2.9 µM
TGI (SK-MEL-28 melanoma): 9.42 µM
GI50 (IGROV1 ovarian): 15.1 µM
TGI (IGROV1 ovarian): 47.9 µM
GI50 (NCI-H522 lung): 1.04 µM
TGI (NCI-H522 lung): 2.36 µM
GI50 (SK-MEL-2 melanoma): 12.4 µM
TGI (SK-MEL-2 melanoma): 29.2 µM
GI50 (HCT-116 colon): 1.28 µM
TGI (HCT-116 colon): 2.61 µM
GI50 (NCI-H226 lung): 2.58 µM
TGI (NCI-H226 lung): 7.78 µM
GI50 (UACC-257 melanoma): 4.58 µM
TGI (UACC-257 melanoma): 17.5 µM
GI50 (K-562 leukemia): 0.562 µM
TGI (K-562 leukemia): 7.78 µM
